Converted amounts (≈) assume the structure as drawn.
How the values were obtained:
[1] = system: Acinetobacter baumannii; test: Antibacterial activity against Acinetobacter baumannii BAA1605 incubated for 16 to 18 hrs by broth microdilution assay; assay type: functional
[2] = system: Escherichia coli; test: Antibacterial activity against Escherichia coli ATCC 25922 incubated for 16 to 18 hrs by broth microdilution assay; assay type: functional
[3] = system: Staphylococcus aureus; test: Antibacterial activity against Staphylococcus aureus ATCC 29213 incubated for 16 to 18 hrs by broth microdilution assay; assay type: functional
[4] = system: Pseudomonas aeruginosa; test: Antibacterial activity against Pseudomonas aeruginosa ATCC 27853 incubated for 16 to 18 hrs by broth microdilution assay; assay type: functional
[5] = system: Mycobacterium tuberculosis; test: Antitubercular activity against Mycobacterium tuberculosis H37Rv after 7 days by resazurin dye based assay; assay type: functional; conditions: 168 h
[6] = system: Klebsiella pneumoniae; test: Antibacterial activity against Klebsiella pneumoniae ATCC BAA-1705 incubated for 16 to 18 hrs by broth microdilution assay; assay type: functional
[7] = system: Staphylococcus aureus; test: Antibacterial activity against Staphylococcus aureus ATCC 29213 assessed as time required to increase 1 log10 CFU at MIC incubated for 1 hr followed by compound washout and measured at 1 hr intervals (reference value: 2 hrs); assay type: functional
[8] = system: Staphylococcus aureus; test: Antibacterial activity against Staphylococcus aureus ATCC 29213 assessed as time required to increase 1 log10 CFU at 10 times MIC incubated for 1 hr followed by compound washout and measured at 1 hr intervals (reference value: 2 hrs); assay type: functional
[9] = system: Staphylococcus aureus; test: Antibacterial activity against vancomycin-resistant Staphylococcus aureus VRS4 incubated for 16 to 18 hrs by broth microdilution assay; assay type: functional
[10] = system: Staphylococcus aureus; test: Antibacterial activity against methicillin-resistant Staphylococcus aureus NR10194 incubated for 16 to 18 hrs by broth microdilution assay; assay type: functional
[11] = system: Staphylococcus aureus; test: Antibacterial activity against methicillin-resistant Staphylococcus aureus NR10193 incubated for 16 to 18 hrs by broth microdilution assay; assay type: functional
[12] = system: Staphylococcus aureus; test: Antibiofilm activity against Staphylococcus aureus ATCC 29213 at 10 times MIC incubated 48 hrs by crystal violet staining based assay relative to control; assay type: functional
[13] = system: Staphylococcus aureus; test: Antibacterial activity against methicillin-resistant Staphylococcus aureus NR10198 incubated for 16 to 18 hrs by broth microdilution assay; assay type: functional
[14] = system: Staphylococcus aureus; test: Antibacterial activity against Staphylococcus aureus ATCC 29213 assessed as post antibiotic effect time at MIC incubated for 1 hr followed by compound washout and measured at 1 hr intervals (reference value: 0 hrs); assay type: functional
[15] = system: Staphylococcus aureus; test: Antibacterial activity against vancomycin-resistant Staphylococcus aureus VRS1 incubated for 16 to 18 hrs by broth microdilution assay; assay type: functional
[16] = system: Staphylococcus aureus; test: Antibacterial activity against methicillin-resistant Staphylococcus aureus NR10186 incubated for 16 to 18 hrs by broth microdilution assay; assay type: functional
[17] = system: Staphylococcus aureus; test: Antibacterial activity against methicillin-resistant Staphylococcus aureus NR10191 incubated for 16 to 18 hrs by broth microdilution assay; assay type: functional
[18] = system: Staphylococcus aureus; test: Antibacterial activity against methicillin-susceptible Staphylococcus aureus ATCC 29213 incubated for 16 to 18 hrs by broth microdilution assay; assay type: functional
[19] = system: Staphylococcus aureus; test: Antibacterial activity against methicillin-resistant Staphylococcus aureus NR100 incubated for 16 to 18 hrs by broth microdilution assay; assay type: functional
[20] = system: Staphylococcus aureus; test: Antibacterial activity against vancomycin-resistant Staphylococcus aureus VRS12 incubated for 16 to 18 hrs by broth microdilution assay; assay type: functional
[21] = system: Staphylococcus aureus; test: Antibacterial activity against methicillin-resistant Staphylococcus aureus NR10192 incubated for 16 to 18 hrs by broth microdilution assay; assay type: functional
[22] = system: Staphylococcus aureus; test: Antibacterial activity against methicillin-resistant Staphylococcus aureus NR10129 incubated for 16 to 18 hrs by broth microdilution assay; assay type: functional
[23] = system: Staphylococcus aureus; test: Antibacterial activity against methicillin-resistant Staphylococcus aureus NR119 incubated for 16 to 18 hrs by broth microdilution assay; assay type: functional
[24] = system: Staphylococcus aureus; test: Antibacterial activity against Staphylococcus aureus ATCC 29213 assessed as post antibiotic effect time at 10 times MIC incubated for 1 hr followed by compound washout and measured at 1 hr intervals (reference value: 0 hrs); assay type: functional
[25] = Cytotoxicity against African green monkey Vero cells assessed as reduction in cell viability after 72 hrs by MTT assay; assay type: cell-based; conditions: chlorocebus sabaeus
[26] = Selectivity index, ratio of CC50 for African green monkey Vero cells to MIC for Mycobacterium tuberculosis H37Rv; assay type: toxicity; conditions: read-out: Selectivity Index

Structure (SMILES) | MIC [1] | MIC [2] | MIC [3] | MIC [4] | MIC [5] | MIC [6] | also measured
N#Cc1ccc(/C=C/c2nc3ncccc3c(=O)n2-c2ccc(C#N)cc2)cc1 | > 64 µg/mL | > 64 µg/mL | 64 µg/mL (≈ 170 µM) | > 64 µg/mL | > 64 µg/mL | > 64 µg/mL | 
C[C@H]1COc2c(N3CCN(C)CC3)c(F)cc3c(=O)c(C(=O)O)cn1c23.C[C@H]1COc2c(N3CCN(C)CC3)c(F)cc3c(=O)c(C(=O)O)cn1c23.O [LEVOFLOXACIN] |  |  | 0.125 to 0.25 µg/mL | 0.5 µg/mL |  | 64 µg/mL | Time [7]: 3 h; Time [8]: 3 h; MIC [9]: > 64 µg/mL; MIC [10]: 0.5 µg/mL; MIC [11]: 32 µg/mL; Activity [12]: 30.6%; MIC [13]: 32 µg/mL; Time [14]: 1 h; MIC [15]: 32 µg/mL; MIC [16]: 4 to 8 µg/mL; MIC [17]: 16 to 32 µg/mL; MIC [18]: < 0.5 µg/mL; MIC [19]: < 0.5 µg/mL; MIC [20]: 32 to 64 µg/mL; MIC [21]: 4 to 8 µg/mL; MIC [22]: 0.5 µg/mL; MIC [23]: 16 µg/mL; Time [24]: 1 h
CC(C)(C)c1ccc(-n2c(/C=C/c3ccc(C#N)cc3)nc3ncccc3c2=O)cc1 | > 64 µg/mL | > 64 µg/mL | > 64 µg/mL | > 64 µg/mL | > 64 µg/mL | > 64 µg/mL | 
CCC(C)(C)c1ccc(OCc2cn(-c3ccc4c(=O)n(-c5cccc(Cl)c5)c(C)nc4c3)nn2)cc1 | > 64 µg/mL | > 64 µg/mL | > 64 µg/mL | > 64 µg/mL | > 64 µg/mL | > 64 µg/mL | 
Cc1nc2ccc(OCc3cn(-c4ccc(Cl)cc4)nn3)cc2c(=O)n1-c1ccccc1 | > 64 µg/mL | > 64 µg/mL | > 64 µg/mL | > 64 µg/mL | 16 µg/mL (≈ 36 µM) | > 64 µg/mL | CC50 at 72 h [25]: > 33.3 µg/mL; selectivity ratio [26]: > 2.08
Cc1nc2ccc(OCc3cn(-c4cccc(Cl)c4)nn3)cc2c(=O)n1-c1ccccc1 | > 64 µg/mL | > 64 µg/mL | > 64 µg/mL | > 64 µg/mL | 16 µg/mL (≈ 36 µM) | > 64 µg/mL | CC50 at 72 h [25]: > 100 µg/mL; selectivity ratio [26]: > 6.25
Cc1nc2cc(NCc3cn(-c4ccc(F)c(Cl)c4)nn3)ccc2c(=O)n1-c1ccccc1 | > 64 µg/mL | > 64 µg/mL | > 64 µg/mL | > 64 µg/mL | > 64 µg/mL | > 64 µg/mL | 
N#Cc1ccc(/C=C/c2nc3ccc(OCc4cn(-c5ccc(F)c(Cl)c5)nn4)cc3c(=O)n2Cc2ccccc2)cc1 | > 64 µg/mL | > 64 µg/mL | > 64 µg/mL | > 64 µg/mL | > 64 µg/mL | > 64 µg/mL | 
N#Cc1ccc(/C=C/c2nc3ccccc3c(=O)n2-c2cccnc2)cc1 | > 64 µg/mL | > 64 µg/mL | 64 µg/mL (≈ 183 µM) | > 64 µg/mL | > 64 µg/mL | > 64 µg/mL | 
Cc1nc2ccc(-c3ccccc3)cc2c(=O)n1-c1ccccc1 | > 64 µg/mL | > 64 µg/mL | > 64 µg/mL | > 64 µg/mL | > 64 µg/mL | > 64 µg/mL | 
Cc1nc2cc(-n3cc(-c4ccccc4)nn3)ccc2c(=O)n1-c1ccccc1 | > 64 µg/mL | > 64 µg/mL | > 64 µg/mL | > 64 µg/mL | > 64 µg/mL | > 64 µg/mL | 
Cc1nc2ccc(OCc3cn(-c4cccc(Cl)c4)nn3)cc2c(=O)n1Cc1ccccc1 | > 64 µg/mL | > 64 µg/mL | > 64 µg/mL | > 64 µg/mL | > 64 µg/mL | > 64 µg/mL | 
